According to US20190185518A9, “WARHEAD-CONTAINING PEPTIDOMIMETIC MACROCYCLES AS MODULATORS OF BFL-1” (AILERON Therapeutics, Inc., priority 2017, published 2019):
Where two headings read alike, the source gives them in different places. Positions of bridges follow the written chain, without caps; N, C: chain ends. Non-standard residues stand in square brackets, D forms with d. Residues, ends and D or L forms follow the SMILES beside them. R8 = C=CCCCCCC[C@@](C)(N)C(=O)O; S5 = C=CCCC[C@](C)(N)C(=O)O

Assays:
[1] = tested on: Mcl-1, Bcl-xL, Bcl-2; experiment: BCL-2 family selectivity profile; type: binding
From the text: The binding spectrum of stapled BIM BH3 peptides were tuned for BCL-2 family selectivity. […] ABT-199 is venetoclax, and † represents values reported in the literature.

[2] = molecular target: Bcl-2 (Homo sapiens, UniProt P10415); experiment: Ki determination for Bcl-2 (BCL-2 family binding spectrum)
Chain of Bcl-2 (P10415 whole entry, species assumed): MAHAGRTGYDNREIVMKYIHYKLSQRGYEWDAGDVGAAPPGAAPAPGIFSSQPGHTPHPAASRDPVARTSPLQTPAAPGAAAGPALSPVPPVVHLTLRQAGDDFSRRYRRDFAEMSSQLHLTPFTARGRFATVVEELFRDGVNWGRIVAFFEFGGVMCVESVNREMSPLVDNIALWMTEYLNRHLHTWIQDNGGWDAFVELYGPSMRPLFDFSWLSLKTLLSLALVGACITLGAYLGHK
Method in brief: (§1)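 Competitive fluorescence polarization: compounds (1 nM–1 mM) with 25 nM fluoresceinated peptidomimetic macrocycle and 50 nM protein in 140 mM NaCl, 50 mM Tris-HCl pH 7.4, 30 min at room temperature. Constants from nonlinear regression.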

[3] = molecular target: Mcl-1 (Homo sapiens, UniProt Q07820); experiment: Ki determination for Mcl-1 (BCL-2 family binding spectrum)
Chain of Mcl-1 (Q07820 whole entry, species assumed): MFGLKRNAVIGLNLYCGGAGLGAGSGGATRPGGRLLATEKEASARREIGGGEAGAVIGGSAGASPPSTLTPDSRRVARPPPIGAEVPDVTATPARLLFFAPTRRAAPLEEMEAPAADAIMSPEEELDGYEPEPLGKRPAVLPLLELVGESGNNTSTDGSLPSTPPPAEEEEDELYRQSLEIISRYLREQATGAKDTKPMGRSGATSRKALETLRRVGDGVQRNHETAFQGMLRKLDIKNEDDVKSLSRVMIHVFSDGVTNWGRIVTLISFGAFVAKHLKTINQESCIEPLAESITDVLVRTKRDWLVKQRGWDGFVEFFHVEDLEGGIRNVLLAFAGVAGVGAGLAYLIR
Method in brief: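 Binding to Mcl-1 was measured as displacement of a fluorescein-labelled macrocyclic peptidomimetic, read by fluorescence polarization. Constants were fitted by nonlinear regression.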

[4] = molecular target: Bcl-xL (Homo sapiens, UniProt Q07817); experiment: Ki determination for Bcl-xL (BCL-2 family binding spectrum)
Chain of Bcl-xL (Q07817 whole entry, species assumed): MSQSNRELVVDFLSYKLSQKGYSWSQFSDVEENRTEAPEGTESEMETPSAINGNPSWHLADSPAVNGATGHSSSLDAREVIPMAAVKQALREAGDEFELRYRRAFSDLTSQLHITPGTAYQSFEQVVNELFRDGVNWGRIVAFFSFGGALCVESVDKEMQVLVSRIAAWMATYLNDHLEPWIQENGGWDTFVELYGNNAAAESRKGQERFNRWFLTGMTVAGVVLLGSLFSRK
Method in brief: as §1

Ki ([2]; TABLE 6, read-out: Bcl-2 Ki) [nM]	Ki ([3]; TABLE 6, read-out: Mcl-1 Ki) [nM]	Ki ([4]; TABLE 6, read-out: Bcl-xL Ki) [nM]	Structure (SMILES)	Profile ([1]; TABLE 6)	also measured
4.8	122	1.9	CC[C@H](C)[C@H](NC(C)=O)C(=O)N[C@@H](Cc1c[nH]c2ccccc12)C(=O)N[C@H](C(=O)N[C@@H](C)C(=O)N[C@@H](CCC(N)=O)C(=O)N[C@@H](C)C(=O)N[C@@H](CC(C)C)C(=O)N[C@@H](CCCNC(=N)N)C(=O)N[C@]1(C)CCCCCCC=CCCC[C@@](C)(C(=O)N[C@@H](Cc2ccc(O)cc2)C(=O)N[C@@H](Cc2ccc(O)cc2)C(=O)N[C@@H](C)C(N)=O)NC(=O)[C@H](CC(N)=O)NC(=O)[C@H](Cc2ccccc2)NC(=O)[C@H](CCC(N)=O)NC(=O)[C@H](CC(=O)O)NC(=O)CNC(=O)[C@H](C)NC1=O)[C@@H](C)CC [compound 10] (Ac-IWIAQALR[R8]AGDQFN[S5]YYA-NH2; staple 9-16)	Bcl-xL/Bcl-2 selective	
	1.4		CC[C@H](C)[C@H](NC(C)=O)C(=O)N[C@@H](Cc1c[nH]c2ccccc12)C(=O)N[C@H](C(=O)N[C@@H](C)C(=O)N[C@@H](CCC(N)=O)C(=O)N[C@@H](C)C(=O)N[C@@H](CC(C)C)C(=O)N[C@@H](CCCNC(=N)N)C(=O)N[C@]1(C)CCCCCCC=CCCC[C@@](C)(C(=O)N[C@@H](Cc2ccc(O)cc2)C(=O)N[C@@H](Cc2ccc(O)cc2)C(=O)N[C@@H](C)C(N)=O)NC(=O)[C@H](CC(N)=O)NC(=O)[C@H](C)NC(=O)[C@H](CCC(N)=O)NC(=O)[C@H](CC(=O)O)NC(=O)CNC(=O)[C@H]([C@@H](C)CC)NC1=O)[C@@H](C)CC [compound 8] (Ac-IWIAQALR[R8]IGDQAN[S5]YYA-NH2; staple 9-16)	Mcl-1 selective	
25.6		7.7	CC[C@H](C)[C@H](NC(C)=O)C(=O)N[C@@H](Cc1c[nH]c2ccccc12)C(=O)N[C@H](C(=O)N[C@@H](C)C(=O)N[C@@H](CCC(N)=O)C(=O)N[C@@H](C)C(=O)N[C@@H](CC(C)C)C(=O)N[C@@H](CCCNC(=N)N)C(=O)N[C@]1(C)CCCCCCC=CCCC[C@@](C)(C(=O)N[C@@H](Cc2ccc(O)cc2)C(=O)N[C@@H](Cc2ccc(O)cc2)C(=O)N[C@@H](C)C(N)=O)NC(=O)[C@H](CC(N)=O)NC(=O)[C@H](Cc2ccccc2)NC(=O)[C@H](CCC(N)=O)NC(=O)[C@H](CC(=O)O)NC(=O)[C@H](C)NC(=O)[C@H]([C@@H](C)CC)NC1=O)[C@@H](C)CC [compound 9] (Ac-IWIAQALR[R8]IADQFN[S5]YYA-NH2; staple 9-16)	Bcl-xL/Bcl-2 selective	

Further lines, the compound ahead of its results:

Structure (SMILES)	Ki ([2]; TABLE 6, read-out: Bcl-2 Ki) [nM]	Ki ([3]; TABLE 6, read-out: Mcl-1 Ki) [nM]	Ki ([4]; TABLE 6, read-out: Bcl-xL Ki) [nM]	Profile ([1]; TABLE 6)	also measured
CC[C@H](C)[C@H](NC(C)=O)C(=O)N[C@@H](Cc1c[nH]c2ccccc12)C(=O)N[C@H](C(=O)N[C@@H](C)C(=O)N[C@@H](CCC(N)=O)C(=O)N[C@@H](C)C(=O)N[C@@H](CC(C)C)C(=O)N[C@@H](CCCNC(=N)N)C(=O)N[C@]1(C)CCCCCCC=CCCC[C@@](C)(C(=O)N[C@@H](Cc2ccc(O)cc2)C(=O)N[C@@H](Cc2ccc(O)cc2)C(=O)N[C@@H](C)C(N)=O)NC(=O)[C@H](CC(N)=O)NC(=O)[C@H](C)NC(=O)[C@H](C)NC(=O)[C@H](CC(=O)O)NC(=O)CNC(=O)[C@H]([C@@H](C)CC)NC1=O)[C@@H](C)CC [compound 7] (Ac-IWIAQALR[R8]IGDAAN[S5]YYA-NH2; staple 9-16)	140	7.5	402	Mcl-1 selective	
CC[C@H](C)[C@H](NC(C)=O)C(=O)N[C@@H](Cc1c[nH]c2ccccc12)C(=O)N[C@H](C(=O)N[C@@H](C)C(=O)N[C@@H](CCC(N)=O)C(=O)N[C@@H](C)C(=O)N[C@@H](CC(C)C)C(=O)N[C@@H](C)C(=O)N[C@]1(C)CCCCCCC=CCCC[C@@](C)(C(=O)N[C@@H](Cc2ccc(O)cc2)C(=O)N[C@@H](Cc2ccc(O)cc2)C(=O)N[C@@H](C)C(N)=O)NC(=O)[C@H](CC(N)=O)NC(=O)[C@H](Cc2ccccc2)NC(=O)[C@H](C)NC(=O)[C@H](CC(=O)O)NC(=O)CNC(=O)[C@H]([C@@H](C)CC)NC1=O)[C@@H](C)CC [compound 11] (Ac-IWIAQALA[R8]IGDAFN[S5]YYA-NH2; staple 9-16)		73.8	386	negative control	
CC[C@H](C)[C@H](NC(C)=O)C(=O)N[C@@H](Cc1c[nH]c2ccccc12)C(=O)N[C@H](C(=O)N[C@@H](C)C(=O)N[C@@H](CCC(N)=O)C(=O)N[C@@H](C)C(=O)N[C@@H](CC(C)C)C(=O)N[C@@H](CCCNC(=N)N)C(=O)N[C@]1(C)CCCCCCC=CCCC[C@@](C)(C(=O)N[C@@H](Cc2ccc(O)cc2)C(=O)N[C@@H](Cc2ccc(O)cc2)C(=O)N[C@@H](C)C(=O)N[C@@H](CCCNC(=N)N)C(=O)N[C@@H](CCCNC(=N)N)C(N)=O)NC(=O)[C@H](CC(N)=O)NC(=O)[C@H](Cc2ccccc2)NC(=O)[C@H](CCC(=O)O)NC(=O)[C@H](CC(=O)O)NC(=O)CNC(=O)[C@H]([C@@H](C)CC)NC1=O)[C@@H](C)CC [Peptide #15] (Ac-IWIAQALR[R8]IGDEFN[S5]YYARR-NH2; staple 9-16)					Profile ([1]; TABLE 8): Pan-selective; Ki ([3]; TABLE 8, read-out: Mcl-1 Ki): 10.6 nM
CC[C@H](C)[C@H](NC(C)=O)C(=O)N[C@@H](Cc1c[nH]c2ccccc12)C(=O)N[C@H](C(=O)N[C@@H](C)C(=O)N[C@@H](CCC(N)=O)C(=O)N[C@@H](C)C(=O)N[C@@H](CC(C)C)C(=O)N[C@@H](CCCNC(=N)N)C(=O)N[C@]1(C)CCCCCCC=CCCC[C@@](C)(C(=O)N[C@@H](Cc2ccc(O)cc2)C(=O)N[C@@H](Cc2ccc(O)cc2)C(=O)N[C@@H](C)C(N)=O)NC(=O)[C@H](CC(N)=O)NC(=O)[C@H](Cc2ccccc2)NC(=O)[C@H](CCC(=O)O)NC(=O)[C@H](CC(=O)O)NC(=O)CNC(=O)[C@H]([C@@H](C)CC)NC1=O)[C@@H](C)CC [Peptide #1] (Ac-IWIAQALR[R8]IGDEFN[S5]YYA-NH2; staple 9-16)	3.2	1.8	1.4	Pan-selective	
CC[C@H](C)[C@H](NC(C)=O)C(=O)N[C@@H](Cc1c[nH]c2ccccc12)C(=O)N[C@H](C(=O)N[C@@H](C)C(=O)N[C@@H](CCC(N)=O)C(=O)N[C@@H](C)C(=O)N[C@@H](C)C(=O)N[C@@H](CCCNC(=N)N)C(=O)N[C@]1(C)CCCCCCC=CCCC[C@@](C)(C(=O)N[C@@H](Cc2ccc(O)cc2)C(=O)N[C@@H](Cc2ccc(O)cc2)C(=O)N[C@@H](C)C(N)=O)NC(=O)[C@H](CC(N)=O)NC(=O)[C@H](Cc2ccccc2)NC(=O)[C@H](C)NC(=O)[C@H](CC(=O)O)NC(=O)CNC(=O)[C@H]([C@@H](C)CC)NC1=O)[C@@H](C)CC [compound 13] (Ac-IWIAQAAR[R8]IGDAFN[S5]YYA-NH2; staple 9-16)				negative control	
CC[C@H](C)[C@H](NC(C)=O)C(=O)N[C@@H](Cc1c[nH]c2ccccc12)C(=O)N[C@H](C(=O)N[C@@H](C)C(=O)N[C@@H](CCC(N)=O)C(=O)N[C@@H](C)C(=O)N[C@@H](CC(C)C)C(=O)N[C@@H](CCCNC(=N)N)C(=O)N[C@]1(C)CCCCCCC=CCCC[C@@](C)(C(=O)N[C@@H](Cc2ccc(O)cc2)C(=O)N[C@@H](Cc2ccc(O)cc2)C(=O)N[C@@H](C)C(N)=O)NC(=O)[C@H](CC(N)=O)NC(=O)[C@H](Cc2ccccc2)NC(=O)[C@H](C)NC(=O)[C@H](CC(N)=O)NC(=O)CNC(=O)[C@H]([C@@H](C)CC)NC1=O)[C@@H](C)CC [compound 12] (Ac-IWIAQALR[R8]IGNAFN[S5]YYA-NH2; staple 9-16)				negative control	
CN(C)CC[C@H](CSc1ccccc1)Nc1ccc(S(=O)(=O)NC(=O)c2ccc(N3CCN(Cc4ccccc4-c4ccc(Cl)cc4)CC3)cc2)cc1[N+](=O)[O-] [ABT-737, reference compound]					Profile ([1]; TABLE 8): Bcl-xL/Bcl-2 selective
CC[C@H](C)[C@H](NC(C)=O)C(=O)N[C@@H](Cc1c[nH]c2ccccc12)C(=O)N[C@H](C(=O)N[C@@H](C)C(=O)N[C@@H](C)C(=O)N[C@@H](C)C(=O)N[C@@H](CC(C)C)C(=O)N[C@@H](CCCNC(=N)N)C(=O)N[C@]1(C)CCCCCCC=CCCC[C@@](C)(C(=O)N[C@@H](Cc2ccc(O)cc2)C(=O)N[C@@H](Cc2ccc(O)cc2)C(=O)N[C@@H](C)C(N)=O)NC(=O)[C@H](CC(N)=O)NC(=O)[C@H](Cc2ccccc2)NC(=O)[C@H](CCC(N)=O)NC(=O)[C@H](CC(=O)O)NC(=O)CNC(=O)[C@H]([C@@H](C)CC)NC1=O)[C@@H](C)CC [compound 1652] (Ac-IWIAAALR[R8]IGDQFN[S5]YYA-NH2; staple 9-16)					Ki ([2]; read-out: Ki BCL-2): 22 nM; Ki ([3]; read-out: Ki MCL-1): 6 nM; Ki ([4]; read-out: Ki BCL-XL): 4 nM
CC[C@H](C)[C@H](NC(C)=O)C(=O)N[C@@H](Cc1c[nH]c2ccccc12)C(=O)N[C@H](C(=O)N[C@@H](C)C(=O)N[C@@H](CCC(N)=O)C(=O)N[C@@H](C)C(=O)N[C@@H](CC(C)C)C(=O)N[C@@H](CCCNC(=N)N)C(=O)N[C@]1(C)CCCCCCC=CCCC[C@@](C)(C(=O)N[C@@H](Cc2ccc(O)cc2)C(=O)N[C@@H](Cc2ccc(O)cc2)C(=O)N[C@@H](C)C(N)=O)NC(=O)[C@H](CC(N)=O)NC(=O)[C@H](Cc2ccccc2)NC(=O)[C@H](CCC(N)=O)NC(=O)[C@H](CC(=O)O)NC(=O)CNC(=O)[C@H]([C@@H](C)CC)NC1=O)[C@@H](C)CC [compound 1650] (Ac-IWIAQALR[R8]IGDQFN[S5]YYA-NH2; staple 9-16)					Ki ([2]; read-out: Ki BCL-2): 67 nM; Ki ([3]; read-out: Ki MCL-1): 5.2 nM; Ki ([4]; read-out: Ki BCL-XL): 12 nM
